In ChEMBL document CHEMBL1201862, “PubChem BioAssay data set” (2004):
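48-hour exposure; five concentrations; linearly interpolated endpoints. GI50: concentration for 50% inhibition of growth.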 Activity calls are given as the source filed them. Rule as the data show it: active = GI50 up to about 1.1 µM and inactive = higher.

Columns and labels:
Test in all cases: NCI anticancer screen, dose series, 48 h
ACHN = test system: ACHN
CAKI-1 = test system: CAKI-1
COLO 205 = test system: COLO 205
EKVX = test system: EKVX
HCC 2998 = test system: HCC 2998
HT-29 = test system: HT-29
LXFL 529 = test system: LXFL 529
MDA-N = test system: MDA-N
NCI-H226 = test system: NCI-H226
RPMI-8226 = test system: RPMI-8226
RXF 393 = test system: RXF 393
SF-539 = test system: SF-539
SK-MEL-28 = test system: SK-MEL-28
SK-MEL-2 = test system: SK-MEL-2
SK-MEL-5 = test system: SK-MEL-5
SR = test system: SR
UACC-257 = test system: UACC-257
BT-549 = test system: BT-549
MDA-MB-231 = test system: MDA-MB-231
T47D = test system: T47D

| SMILES | GI50 (ACHN) | GI50 (CAKI-1) | GI50 (COLO 205) | GI50 (EKVX) | GI50 (HCC 2998) | GI50 (HT-29) | GI50 (LXFL 529) | GI50 (MDA-N) | GI50 (NCI-H226) | GI50 (RPMI-8226) | GI50 (RXF 393) | GI50 (SF-539) | GI50 (SK-MEL-28) | GI50 (SK-MEL-2) | GI50 (SK-MEL-5) | GI50 (SR) | GI50 (UACC-257) | GI50 (BT-549) | GI50 (MDA-MB-231) | GI50 (T47D) |
| --- | --- | --- | --- | --- | --- | --- | --- | --- | --- | --- | --- | --- | --- | --- | --- | --- | --- | --- | --- | --- |
| CC1=C2C(=CC(C)(C)[C@@H]2O)C(=O)[C@](C)(O)C12CC2 [ILLUDIN M] | < 0.011 µM (active) | 0.0209 µM (active) | 0.0243 µM (active) | 0.0773 µM (active) | < 0.0117 µM (active) | < 0.0126 µM (active) | 0.022 µM (active) | 0.0171 µM (active) | 0.0619 µM (active) | 0.839 µM (active) | 0.00329 µM (active) | 0.0184 µM (active) | < 0.0209 µM (active) | 0.0134 µM (active) | 0.0126 µM (active) | 0.01 µM (active) | 0.08 µM (active) |  |  |  |
| O=C1C=CC(=O)c2cc(Sc3ccccc3)c(=O)ccc21 | 9.89 µM (inactive) |  | 7.73 µM (inactive) | 18.3 µM (inactive) | 16.3 µM (inactive) | 20.6 µM (inactive) | 7.43 µM (inactive) | 16.9 µM (inactive) | 23.1 µM (inactive) | 4.46 µM (inactive) | 12.3 µM (inactive) | 19.8 µM (inactive) | 18 µM (inactive) | 13.6 µM (inactive) | 14.2 µM (inactive) | 1.58 µM (inactive) | 18 µM (inactive) | 17.9 µM (inactive) | 17.9 µM (inactive) | 3.41 µM (inactive) |
| C/C(CC(=O)Nc1ccc(Cl)c(Cl)c1)=N/NC(=O)C[N+](C)(C)C | > 100 µM (inactive) | > 100 µM (inactive) | 35.2 µM (inactive) | > 100 µM (inactive) | > 100 µM (inactive) | > 100 µM (inactive) | > 100 µM (inactive) |  | > 100 µM (inactive) | 25.8 µM (inactive) | > 100 µM (inactive) | > 100 µM (inactive) | 0.194 µM (active) | > 100 µM (inactive) | > 100 µM (inactive) | 22.5 µM (inactive) | > 100 µM (inactive) |  |  |  |
| COc1ccc(OC2(c3cc(OC)ccc3OC)OC(=O)c3ccccc32)cc1 (configuration not stated) | > 100 µM (inactive) | > 100 µM (inactive) | > 100 µM (inactive) | > 100 µM (inactive) | > 100 µM (inactive) | > 100 µM (inactive) | > 100 µM (inactive) |  | > 100 µM (inactive) | > 100 µM (inactive) | > 100 µM (inactive) | > 100 µM (inactive) | > 100 µM (inactive) | > 100 µM (inactive) | > 100 µM (inactive) | > 100 µM (inactive) | > 100 µM (inactive) |  |  |  |
| CCOC(OC1=C(C#N)CCCC1)C(C)[Se]c1ccccc1 (configuration not stated) | 44.5 µM (inactive) | 65.2 µM (inactive) | 39.7 µM (inactive) | 28.7 µM (inactive) | > 100 µM (inactive) | 52.6 µM (inactive) | 22.7 µM (inactive) |  | 30.7 µM (inactive) | 28.3 µM (inactive) | 15.2 µM (inactive) | 18.1 µM (inactive) | 26 µM (inactive) | > 100 µM (inactive) | 20.6 µM (inactive) | 20.7 µM (inactive) | 74.6 µM (inactive) |  |  |  |
| COc1ccc(-c2cc(=O)c3c(O)c(O)c(OC)cc3o2)cc1O | > 100 µM (inactive) | > 100 µM (inactive) | > 100 µM (inactive) | > 100 µM (inactive) | > 100 µM (inactive) | > 100 µM (inactive) | > 100 µM (inactive) |  | > 100 µM (inactive) | > 100 µM (inactive) | > 100 µM (inactive) | > 100 µM (inactive) | > 100 µM (inactive) | > 100 µM (inactive) | > 100 µM (inactive) | 44.5 µM (inactive) | > 100 µM (inactive) |  |  |  |
| COC(=O)C1C=CCON2CCc3c(n(C)c4ccccc34)C12 (configuration not stated) | > 100 µM (inactive) | > 100 µM (inactive) | > 100 µM (inactive) | 92.3 µM (inactive) | > 100 µM (inactive) | > 100 µM (inactive) | > 100 µM (inactive) |  | > 100 µM (inactive) | > 100 µM (inactive) | > 100 µM (inactive) | > 100 µM (inactive) | > 100 µM (inactive) | > 100 µM (inactive) | > 100 µM (inactive) | > 100 µM (inactive) |  |  |  |  |
| COc1cc2c(c(OC)c1OC)C(=O)NCCC2 | > 100 µM (inactive) | > 100 µM (inactive) | > 100 µM (inactive) | > 100 µM (inactive) | > 92.9 µM (inactive) | > 100 µM (inactive) | > 100 µM (inactive) |  | > 100 µM (inactive) | > 100 µM (inactive) | > 100 µM (inactive) | > 100 µM (inactive) | > 100 µM (inactive) | > 100 µM (inactive) | > 100 µM (inactive) | > 100 µM (inactive) | > 100 µM (inactive) |  |  |  |
| Cc1ccc(NC(=O)CC2C(=O)Nc3ccccc3[S+]2[O-])c(C)c1 (configuration not stated) | 21 µM (inactive) | 11 µM (inactive) | 7.52 µM (inactive) | > 61.7 µM (inactive) | 20 µM (inactive) | 4.35 µM (inactive) | 16.5 µM (inactive) |  | 16.2 µM (inactive) | 12.1 µM (inactive) | 8.61 µM (inactive) | 12.9 µM (inactive) | 15.8 µM (inactive) | 9.35 µM (inactive) | 4.11 µM (inactive) | 2.9 µM (inactive) | 50.8 µM (inactive) |  |  |  |
